In US11998008B2, “Pesticides and methods of controlling pests” (The State of Israel, Ministry of Agriculture & Rural …, priority 2017, dated 2024):
“Also recorded” adds a separate entry of the source.

Tests used:
S. rolfsii = experiment: Fungicidal activity assay on PDA in sealed Petri dish (growth inhibition and mortality); format: cell-based, Sclerotinia rolfsii; settings: S. rolfsii; for I - Inhibition class: 2 days; for M - Mortality, minimal concentration that killed the fungus / MFC: NA + number = still viable in the highest concentration tested (given as >); for I - Inhibition, minimal concentration that inhibited the growth: concentration to which the class above belongs; for MFC: Agroathelia rolfsii, read-out: M - Mortality, minimal concentration that killed the fungus
Protocol: (§1) Each compound was placed on a disconnected cover from an Eppendorf tube that was located in the middle of the Petri dish and a hyphae-containing plug of each test fungus was added to the culture plate. In exemplary procedures, the tested compounds trans-2-heptenal, trans-2-octenal were tested in comparison with octanal, trans-2-octen-1-ol, methyl trans-2-octenoate, trans-3-octen-2-one and 3-pentenenitrile. In addition, cyclic ketones as 2-cyclopenten-1-one, 2-cyclohexen-1-one and α-tetralone were also examined. Then, the culture plate was sealed with parafilm and incubated at room-temperature for 2 days, after which the growth of the test fungi in those dishes was compared with those in the test compound-free control dishes. At the end of the assay, the viability of each test fungus was evaluated by transferring inoculum plugs to fresh PDA plates and observing the growth that developed within the next 2 days. The test fungi used in this study included but were not limited to Alternaria alternata, Botrytis cinerea, Sclerotinia rolfsii, Penicillium digitatum, Fusarium oxysporum f. sp. radicis-cucumerinum and Rhizoctonia solani.

B. cinerea = experiment: as above; format: cell-based, Botrytis cinerea; settings: for I - Inhibition class: 2 days; for I - Inhibition, minimal concentration that inhibited the growth: concentration to which the class above belongs
Protocol: as §1, with “In exemplary procedures, the fungicidial activity of the compounds listed in Table 2 were examined by activity assays as follow: Petri dishes, 90 mm in diameter, with air volume of 80 mL, contained 10-12 mL of growth medium comprising potato dextrose agar (PDA) (Acumedia, Lansing, Michigan, USA) amended with tetracycline at 12 μg/mL. Each” for “Each”

P. digitatum = experiment: as above; format: cell-based, Penicillium digitatum; settings: for I - Inhibition class: 2 days; for I - Inhibition, minimal concentration that inhibited the growth: concentration to which the class above belongs
Protocol: as §1, with “In exemplary procedures, the fungicidial activity of the compounds listed in Table 2 were examined by activity assays as follow: Petri dishes, 90 mm in diameter, with air volume of 80 mL, contained 10-12 mL of growth medium comprising potato dextrose agar (PDA) (Acumedia, Lansing, Michigan, USA) amended with tetracycline at 12 μg/mL. Each” for “Each”

A. alternata = experiment: as above; format: cell-based, Alternaria alternata; settings: for I - Inhibition class: 2 days; for I - Inhibition, minimal concentration that inhibited the growth: concentration to which the class above belongs
Protocol: as §1, with “In exemplary procedures, the fungicidial activity of the compounds listed in Table 2 were examined by activity assays as follow: Petri dishes, 90 mm in diameter, with air volume of 80 mL, contained 10-12 mL of growth medium comprising potato dextrose agar (PDA) (Acumedia, Lansing, Michigan, USA) amended with tetracycline at 12 μg/mL. Each” for “Each”

[1] = tested on: Meloidogyne javanica second stage juveniles (J2s); experiment: Nematocidal activity: viability of J2 nematodes after 2 days exposure to the compound in a sealed box; settings: in vivo
[2] = tested on: Meloidogyne javanica second stage juveniles (J2s); experiment: as above; format: in vivo
Text: In exemplary procedures, the sedentary root-knot nematode from the genus Meloidogyne javanica second stage juveniles (J2s) was propagated on greenhouse-grown nematode-susceptible tomato Lycopersicon esculentum cv. ‘Avigail 870’ (Hazera, Shikmim, Israel), and nematode eggs were bulk-extracted from the roots with 0.05% (v/v) sodium hypochlorite (NaOCl) followed by sucrose flotation and successive sievings through nylon filters of 300, 120, 60, and 30 μm mesh sizes (AD Sinun Technologies, Petach Tikvah, Israel). For hatching J2, extracted eggs were placed on 30-μm sieves (AD Sinun Technologies) in 0.01 M MES (2-(N-morpholino) ethanesulfonic acid hydrate) pH 6.5 buffer under aseptic conditions in darkness for 5 days, and hatching J2s were collected for further experiments.
Seven vials, each containing 300 J2 nematodes with 0.5 mL of 0.01 M 2-(N-morpholino)ethanesulfonic acid (MES) buffer, were exposed to cyclic ketone compounds in order to examine their nematocidal activity and reduction in viability. In addition, a humid environment in a sealed 1 L box was maintained by addition 5 ml of distilled H2O to a 50-mm Petri plate. The box was sealed after compound addition into each 50-mm Petri plate together with 5-250 mg of perlite particles and incubated for 2 days in the dark at 25±1° C. C5 and C6 saturated and α,β-unsaturated cyclic ketones were tested for their nematocidal activity. The J2 nematodes viability was examined following exposure to the cyclic ketone compounds, by a straightforward small-scale nematode extraction method, based on the traditional Baermann funnel method. Briefly, all nematode suspensions were loaded onto 30-μm (AD Sinun Technologies) filters (1.0-1.5 cm height, 1.1-2.0 cm^3 internal area), and the nematodes were washed twice with 300 μL of 0.01 M MES buffer in order to remove any residues. Then, filters holding nematodes were placed into 15 mL Falcon centrifuge tubes, each containing 900 μL of 0.01 M of MES buffer. These filters allow active passage of only living J2s while paralyzed or dead nematodes remain on top of the filter. The whole apparatus including the filter holding the nematodes and the Falcon tubes were placed in the dark for 3 h at 25±1° C. Then, the filters were removed and the viable nematodes, which were able to actively cross the filter toward the 0.01 M of MES buffer, were collected from the Falcon tube and counted using a Nematode Counting Slide (Chalex LLC, Portland, OR, USA) and a SV11 stereomicroscope (Zeiss, Jena, Germany).
Data were analyzed by the JMP 12 software package (SAS Inc., Cary, NC, USA). Mean numbers of viable J2s under various conditions were subjected to one-way analysis of variance (ANOVA), followed by the Tukey-Kramer multiple comparison test, with significance set at P<0.05.

test fungi = experiment: Fungicidal activity assay on PDA, summaries over the test fungi; format: cell-based; settings: comparison within the series
Protocol: as §1, with “In exemplary procedures, the fungicidial activity of the compounds listed in Table 2 were examined by activity assays as follow: Petri dishes, 90 mm in diameter, with air volume of 80 mL, contained 10-12 mL of growth medium comprising potato dextrose agar (PDA) (Acumedia, Lansing, Michigan, USA) amended with tetracycline at 12 μg/mL. Each” for “Each”

[3] = tested on: F. oxysporum f. sp. radicis-cucumerium; experiment: Fungicidal activity assay on PDA in sealed Petri dish (growth inhibition and mortality); format: cell-based, Fusarium oxysporum f. sp. radicis-cucumerinum; settings: for MFC: Fusarium oxysporum, read-out: M - Mortality, minimal concentration that killed the fungus; for MFC / M - Mortality, minimal concentration that killed the fungus: NA + number = still viable in the highest concentration tested (given as >); for I - Inhibition class: 2 days; for I - Inhibition, minimal concentration that inhibited the growth: concentration to which the class above belongs
Protocol: as §1

R. solani = experiment: microbe, parasite or virus in culture; format: cell-based; settings: R. solani; for MFC: Rhizoctonia solani, read-out: M - Mortality, minimal concentration that killed the fungus; for MFC / M - Mortality, minimal concentration that killed the fungus: NA + number = still viable in the highest concentration tested (given as >); for I - Inhibition class: 2 days; for I - Inhibition, minimal concentration that inhibited the growth: concentration to which the class above belongs
Protocol: as §1

Tomato plants = experiment: Phytotoxicity on tomato plants in soil, compound on perlite particles; format: in vivo; settings: one day after treatment
Text: In exemplary procedures, the phytotixicity of trans-2-octenal and 2-cyclopenten-1-one was examined in triplicates for each concentration: 250, 1,000, 4,000, and 20,000 ppm compared to control.

[4] = NA + number = still viable in the highest concentration tested (given as >)
[5] = at the concentration given, 2 days incubation

| SMILES | I - Inhibition class (S. rolfsii) | M - Mortality, minimal concentration that killed the fungus (S. rolfsii) [ppm] | I - Inhibition, minimal concentration that inhibited the growth (S. rolfsii) [ppm] | I - Inhibition class (B. cinerea) | M - Mortality, minimal concentration that killed the fungus (B. cinerea; [4]) [ppm] | I - Inhibition, minimal concentration that inhibited the growth (B. cinerea) [ppm] | I - Inhibition class (P. digitatum) | M - Mortality, minimal concentration that killed the fungus (P. digitatum; [4]) [ppm] | I - Inhibition, minimal concentration that inhibited the growth (P. digitatum) [ppm] | I - Inhibition class (A. alternata) | M - Mortality, minimal concentration that killed the fungus (A. alternata; [4]) [ppm] | I - Inhibition, minimal concentration that inhibited the growth (A. alternata) [ppm] | Activity: the most effective concentration [1] | Activity: reduction in J2s viability relative to non exposed control J2s (class) [2, 5] | fungicidal activity in words (test fungi) | MFC [3] [µg/mL] | MFC (S. rolfsii) [µg/mL] | MFC (R. solani) [µg/mL] | I - Inhibition class [3] | M - Mortality, minimal concentration that killed the fungus [3] [ppm] | also measured |
| --- | --- | --- | --- | --- | --- | --- | --- | --- | --- | --- | --- | --- | --- | --- | --- | --- | --- | --- | --- | --- | --- |
| CC(C)=CCCC(C)=CCCC(C)=CC=O (single isomer, unassigned) [Farnesal mixture of isomers, Farnesal] | MI (Medium inhibition - 76-99% of growth inhibition) | > 125 | 125 | MI (Medium inhibition - 76-99% of growth inhibition) | > 125 | 12.5 | NI (<50% growth inhibition) | > 125 | 125 | NI (<50% growth inhibition) | > 125 | 125 | N 250 ppm | N (<50% reduction in viability) |  |  |  |  |  |  |  |
| O=C1C=CCC1 [2-cyclopenten-1-one] |  |  |  |  |  |  |  |  |  |  |  |  |  |  | fungicidal activity, to some extent | > 25 | > 25 | > 25 |  |  | phytotoxicity (Tomato plants; 250 ppm): No phytotoxicity; phytotoxicity (Tomato plants; 1,000 ppm): phytotoxic; also recorded: Low phytotoxicity; phytotoxicity (Tomato plants; 4,000 ppm): phytotoxic; also recorded: Medium phytotoxicity; phytotoxicity (Tomato plants; 20,000 ppm): phytotoxic; also recorded: Strong phytotoxicity |
| O=C1CCCCCC1 [Cycloheptanone] |  |  |  |  |  |  |  |  |  |  |  |  |  |  |  | > 250 | 2500 | > 250 |  |  | MFC (B. cinerea; Botrytis cinerea, NA + number = still viable in the highest concentration tested (given as >), read-out: M - Mortality, minimal concentration that killed the fungus): 1250 µg/mL; MFC (P. digitatum; Penicillium digitatum, NA + number = still viable in the highest concentration tested (given as >), read-out: M - Mortality, minimal concentration that killed the fungus): 2500 µg/mL; MFC (A. alternata; Alternaria alternata, NA + number = still viable in the highest concentration tested (given as >), read-out: M - Mortality, minimal concentration that killed the fungus): 1250 µg/mL; nematocidal activity in words ([2]; comparison within the series): nematocidal effects at substantially higher concentrations |
| C/C=C(\C)C=O [Tiglic aldehyde] | MI (Medium inhibition - 76-99% of growth inhibition) | > 25 | 25 |  |  |  |  |  |  |  |  |  | M 25 ppm | M (76-90% reduction in viability) |  |  |  |  | NI (<50% growth inhibition) | > 25 | I - Inhibition, minimal concentration that inhibited the growth [3]: 25 ppm; I - Inhibition class (R. solani): MI (Medium inhibition - 76-99% of growth inhibition); M - Mortality, minimal concentration that killed the fungus (R. solani): > 25 ppm; I - Inhibition, minimal concentration that inhibited the growth (R. solani): 25 ppm |
| O=C1CCCc2ccccc21 [α-Tetralone] | NI (<50% growth inhibition) | > 25 | 25 |  |  |  |  |  |  |  |  |  |  |  | further reduced fungicidal activity |  |  |  | NI (<50% growth inhibition) | > 25 | I - Inhibition, minimal concentration that inhibited the growth [3]: 25 ppm; I - Inhibition class (R. solani): NI (<50% growth inhibition); M - Mortality, minimal concentration that killed the fungus (R. solani): > 25 ppm; I - Inhibition, minimal concentration that inhibited the growth (R. solani): 25 ppm; Activity: the most effective concentration ([2]; concentration to which the class of the same cell belongs): 25 ppm |
| CC(=O)/C=C/C1C(C)=CCCC1(C)C (stereo not drawn) [α-ionone] | LI (Low inhibition - 51-75% of growth inhibition compared to control.) | > 1250 | 1250 | LI (Low inhibition - 51-75% of growth inhibition compared to control.) | > 1250 | 1250 | NI (<50% growth inhibition) | > 1250 | 1250 | LI (Low inhibition - 51-75% of growth inhibition compared to control.) | > 1250 | 1250 | N 250 ppm |  |  |  |  |  |  |  | Activity: reduction in J2s viability relative to non exposed control J2s (class) ([2]; in vivo): N 250 (key: S: >90% reduction in viability; M: 76-90% reduction in viability; L: 51-75% reduction in viability; N: <50% reduction in viability) |
